5 compounds from patent publication US6495591B1, “Fungal efflux pump inhibitors” (Essential Therapeutics, Inc., priority 1997, dated 2002) can be followed below.

Where two headings read alike, the source gives them in different places.

What all share (assay type): cell-based
The subject of assay [1] is YEM 17 C. glabrata, CgCDR up. Conditions: 24 hrs, 80% inhibition; for MIC of compound in the presence of fluconazole (+): 1/8 × MIC of fluconazole.
Assay [2] relates to YEM 13 C. albicans BEN up. Description: microbe, parasite or virus in culture. Conditions: YEM 13, 24 hrs, 80% inhibition; for MIC of compound in the presence of fluconazole (+): 1/8 × MIC of fluconazole.
Assay [3] has as its system YEM 30 C. albicans wt. Kind of assay: FEPI MIC with/without 1/8 fluconazole MIC at 24 hrs (Table 11).
The test system of assay [4] is Aspergillus fumigatus. Description: FEPI MICs in combination with 1/4 the azole's MIC (Table 12). Also noted: FEPI MIC (alone): unit not given here. Conditions: for FEPI MIC with itraconazole, 60% Inh / FEPI MIC with itraconazole, 80% Inh: itraconazole 0.063 μg/ml (1/4 MIC); for FEPI MIC with ketoconazole, 60% Inh / FEPI MIC with ketoconazole, 80% Inh: ketoconazole 4 μg/ml (1/4 MIC); for FEPI MIC (alone): no azole, 35° C., CM Broth. How it is done: The combinations were tested against a series of Candida strain with known expression of efflux pumps or with complete deletion of all known pumps and Aspergillus fumigatus. Results are reported as minimum inhibitory concentration (MIC) of […] in the presence or absence of […]. A total of 27 distinct milbemycins were studied.

In assay [5] the test system is YEM 15 C. albicans, CDR1CDR2 up. Description: microbe, parasite or virus in culture. The note with it: YEM 15, 24 hrs, 80% inhibition; for MIC of compound in the presence of fluconazole (+): 1/8 × MIC of fluconazole.
Assay [6] concerns YEM 53 C. krusei. Description: FEPI MIC with/without 1/8 fluconazole MIC at 24 hrs (Table 11).
For assay [7], the system named is YEM 27 C. albicans ΔCDR1ΔCDR2 ΔBENΔFLU1. Description: microbe, parasite or virus in culture. The note with it: YEM 27, 24 hrs, 80% inhibition; for MIC of compound in the presence of fluconazole (+): 1/8 × MIC of fluconazole.
The subject of assay [8] is YEM 24 C. albicans ΔCDR1, ΔCDR2. Kind of assay: microbe, parasite or virus in culture. The note with it: YEM 24, 24 hrs, 80% inhibition; for MIC of compound in the presence of fluconazole (+): 1/8 × MIC of fluconazole.
In assay [9] the test system is YEM 51 C. glabrata wt. Description: FEPI MIC with/without 1/8 fluconazole MIC at 24 hrs (Table 11).
The mark [10] stands for this setting: YEM 30, 1/8 × MIC of fluconazole, 24 hrs, 80% inhibition.
Where [11] appears, read: fluconazole 32 μg/ml (1/4 MIC), 60% inhibition.
The mark [12] stands for this setting: fluconazole 32 μg/ml (1/4 MIC), 80% inhibition.
Setting [13] is: YEM 53, 1/8 × MIC of fluconazole, 24 hrs, 80% inhibition.
[14] abbreviates: YEM 51, 1/8 × MIC of fluconazole, 24 hrs, 80% inhibition.

With “8-Methyl-5,6-dihydroxymilbemycin β1 [Compound 19]”, the MIC of compound in the presence of fluconazole (+) in assay [1] was 64 µg/mL; in assay [2], 16 µg/mL; in assay [3] (setting [10]), “≦0.03”; in assay [5], “≦0.03”; in assay [6] (setting [13]), 8 µg/mL; in assay [7], 16 µg/mL. In addition, the MIC of compound in the presence of fluconazole (+) in assay [8] was 32 µg/mL; in [9] (setting [14]) it was > 64 µg/mL. Further, the MIC of compound in the absence of fluconazole (−) is > 64 µg/mL in assay [1]; > 64 µg/mL in assay [2]; 8 µg/mL in assay [3] (YEM 30, 24 hrs, 80% inhibition); > 64 µg/mL in assay [5]; > 64 µg/mL in [6] (YEM 53, 24 hrs, 80% inhibition); > 64 µg/mL in assay [7]. Moreover, the MIC of compound in the absence of fluconazole (−) was > 64 µg/mL in assay [8] and > 64 µg/mL in assay [9] (YEM 51, 24 hrs, 80% inhibition). In [4] (setting [11]), the “FEPI MIC with fluconazole, 60% Inh” value was 32. Also, in assay [4] (setting [12]), the “FEPI MIC with fluconazole, 80% Inh” value is listed as 64. Further, the “FEPI MIC with itraconazole, 60% Inh” value in assay [4] (60% inhibition) was determined as 8. For the same compound, the “FEPI MIC with itraconazole, 80% Inh” value in assay [4] (80% inhibition) is listed as >64. In addition, in [4] (60% inhibition), the “FEPI MIC with ketoconazole, 60% Inh” value was “≦0.063”. The “FEPI MIC with ketoconazole, 80% Inh” value in [4] (80% inhibition) is reported as “≦0.063”. Moreover, the “FEPI MIC (alone)” value in [4] (80% inhibition) is reported as 64.

Turning to `C/C1=C\C[C@@H]2CC(C[C@]3(CC[C@H](C)[C@@H](C)O3)O2)OC(=O)c2cc(C)c(O)cc2/C(C)=C/C=C/[C@H](C)C1` [Compound 13, Milbemycin β3], the MIC of compound in the presence of fluconazole (+) was 64 µg/mL in [1]; 64 µg/mL in [2]; 0.125 µg/mL in assay [3] (setting [10]); 8 µg/mL in [5]; > 64 µg/mL in [6] (setting [13]); > 64 µg/mL in [7]. Further, the MIC of compound in the presence of fluconazole (+) in assay [8] and in assay [9] (setting [14]) was > 64 µg/mL in each case. The MIC of compound in the absence of fluconazole (−) in [1] is > 64 µg/mL; in [2], > 64 µg/mL; in [3] (YEM 30, 24 hrs, 80% inhibition), > 64 µg/mL; in assay [5], > 64 µg/mL; in assay [6] (YEM 53, 24 hrs, 80% inhibition) it was > 64 µg/mL; in assay [7] it was > 64 µg/mL. For the same compound, the MIC of compound in the absence of fluconazole (−) in assay [8] was > 64 µg/mL; in assay [9] (YEM 51, 24 hrs, 80% inhibition) it was > 64 µg/mL. For the same compound, the “FEPI MIC with fluconazole, 60% Inh” value in assay [4] (setting [11]) came out at 32. Moreover, the “FEPI MIC with fluconazole, 80% Inh” value in [4] (setting [12]) was >64. In addition, the “FEPI MIC with itraconazole, 60% Inh” value in assay [4] (60% inhibition) amounted to 64. Besides, the “FEPI MIC with itraconazole, 80% Inh” value in assay [4] (80% inhibition) is listed as >64. In addition, the “FEPI MIC with ketoconazole, 60% Inh” value in assay [4] (60% inhibition) was 0.5. Further, the “FEPI MIC with ketoconazole, 80% Inh” value in [4] (80% inhibition) is given as 0.5. Moreover, in assay [4] (80% inhibition), the “FEPI MIC (alone)” value is given as >64.

With `CCCCC(C)C(=O)OC1C(C)C(CC)OC2(CC3CC(CC=C(C)CC(C)C=CC=C4COC5C(O)C(C)=CC(C(=O)O3)C45O)O2)C1O` (stereo not drawn) [Compound 10, Milbemycin α7], the MIC of compound in the presence of fluconazole (+) in [1] was 1 µg/mL; in [2], > 64 µg/mL; in assay [3] (setting [10]) it was “≦0.03”; in assay [5], “≦0.03”; in [6] (setting [13]), > 64 µg/mL; in assay [7], > 64 µg/mL. Moreover, the MIC of compound in the presence of fluconazole (+) was > 64 µg/mL in assay [8] and 2 µg/mL in assay [9] (setting [14]). Besides, the MIC of compound in the absence of fluconazole (−) was > 64 µg/mL in [1]; > 64 µg/mL in [2]; > 64 µg/mL in assay [3] (YEM 30, 24 hrs, 80% inhibition); > 64 µg/mL in assay [5]; > 64 µg/mL in [6] (YEM 53, 24 hrs, 80% inhibition); > 64 µg/mL in assay [7]. Also, the MIC of compound in the absence of fluconazole (−) in assay [8] was > 64 µg/mL; in assay [9] (YEM 51, 24 hrs, 80% inhibition) it was > 64 µg/mL. Moreover, in assay [4] (setting [11]), the “FEPI MIC with fluconazole, 60% Inh” value is reported as 0.25. Moreover, the “FEPI MIC with fluconazole, 80% Inh” value in [4] (setting [12]) worked out at 4. In [4] (60% inhibition), the “FEPI MIC with itraconazole, 60% Inh” value came to 1. The “FEPI MIC with itraconazole, 80% Inh” value in assay [4] (80% inhibition) is 8. The “FEPI MIC with ketoconazole, 60% Inh” value in [4] (60% inhibition) was found to be 0.25. Further, the “FEPI MIC with ketoconazole, 80% Inh” value in assay [4] (80% inhibition) was 0.25. The “FEPI MIC (alone)” value in assay [4] (80% inhibition) was >64.

`CC1=C[C@H]2C(=O)O[C@H]3C[C@@H](C/C=C(\C)C[C@@H](C)/C=C/C=C4\CO[C@H]([C@@H]1O)[C@@]42O)O[C@@]1(CC[C@H](C)[C@@H](C(C)C)O1)C3` [Compound 12, Milbemycin D]: the MIC of compound in the presence of fluconazole (+) in assay [1] was 32 µg/mL; in assay [2] it was > 64 µg/mL; in [3], 4 µg/mL; in [5] it was “≦0.03”; in assay [6], 8 µg/mL; in assay [7], 64 µg/mL. Moreover, the MIC of compound in the presence of fluconazole (+) in assay [8] is > 64 µg/mL; in assay [9], 8 µg/mL. Moreover, the MIC of compound in the absence of fluconazole (−) in assay [1] was > 64 µg/mL; in assay [2], > 64 µg/mL; in assay [3] (YEM 30, 24 hrs, 80% inhibition) it was > 64 µg/mL; in assay [5], > 64 µg/mL; in assay [6] (YEM 53, 24 hrs, 80% inhibition), > 64 µg/mL; in assay [7], > 64 µg/mL. Besides, the MIC of compound in the absence of fluconazole (−) in [8] is > 64 µg/mL; in assay [9] (YEM 51, 24 hrs, 80% inhibition), > 64 µg/mL. In assay [4], the “FEPI MIC with fluconazole, 60% Inh” value worked out at 16. The “FEPI MIC with fluconazole, 80% Inh” value in [4] was >64. Further, in assay [4] (60% inhibition), the “FEPI MIC with itraconazole, 60% Inh” value is given as 8. Further, the “FEPI MIC with itraconazole, 80% Inh” value in assay [4] (80% inhibition) was >64. Further, in assay [4] (60% inhibition), the “FEPI MIC with ketoconazole, 60% Inh” value is given as 0.125. Further, the “FEPI MIC with ketoconazole, 80% Inh” value in assay [4] (80% inhibition) was determined as 1. In [4] (80% inhibition), the “FEPI MIC (alone)” value is >64.

Take “8-Methyl-8-deoxymilbemycin β1 [Compound 24]”: the MIC of compound in the presence of fluconazole (+) in assay [1] is 1 µg/mL; in assay [2] it was 64 µg/mL; in [3] (setting [10]) it was “≦0.03”; in assay [5], “≦0.03”; in [6] (setting [13]), > 64 µg/mL; in assay [7] it was 64 µg/mL. In addition, the MIC of compound in the presence of fluconazole (+) was > 64 µg/mL in [8] and 0.125 µg/mL in assay [9] (setting [14]). Also, the MIC of compound in the absence of fluconazole (−) in assay [1] is > 64 µg/mL; in assay [2], > 64 µg/mL; in assay [3] (YEM 30, 24 hrs, 80% inhibition) it was > 64 µg/mL; in [5], > 64 µg/mL; in assay [6] (YEM 53, 24 hrs, 80% inhibition), > 64 µg/mL; in [7] it was > 64 µg/mL. The MIC of compound in the absence of fluconazole (−) in assay [8] was > 64 µg/mL; in assay [9] (YEM 51, 24 hrs, 80% inhibition), > 64 µg/mL. Besides, the “FEPI MIC with fluconazole, 60% Inh” value in assay [4] (setting [11]) is 64. Further, the “FEPI MIC with fluconazole, 80% Inh” value in assay [4] (setting [12]) amounted to 64. For the same compound, the “FEPI MIC with itraconazole, 60% Inh” value in assay [4] (60% inhibition) was determined as 64. In addition, in assay [4] (80% inhibition), the “FEPI MIC with itraconazole, 80% Inh” value came out at 64. Moreover, the “FEPI MIC with ketoconazole, 60% Inh” value in assay [4] (60% inhibition) is given as “≦0.063”. Moreover, the “FEPI MIC with ketoconazole, 80% Inh” value in assay [4] (80% inhibition) is recorded as “≦0.063”. Also, the “FEPI MIC (alone)” value in assay [4] (80% inhibition) came out at 64.
